In PubChem BioAssay (NCI):
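Following 48 hours of exposure in 96-well plates, responses at five concentrations were used to interpolate endpoints linearly. GI50: concentration for 50% inhibition of growth. At the TGI there is no net growth.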

Tests used:
Experiment in all cases: DTP human tumour cell line panel, 48 h
786-0 renal = system: 786-0 renal
A549 NSCLC = system: A549 NSCLC
ACHN renal = system: ACHN renal
BT-549 breast = system: BT-549 breast
CAKI-1 renal = system: CAKI-1 renal
CCRF-CEM leukemia = system: CCRF-CEM leukemia
COLO 205 colon = system: COLO 205 colon
DU-145 prostate = system: DU-145 prostate
EKVX NSCLC = system: EKVX NSCLC
HCC-2998 colon = system: HCC-2998 colon
HCT-116 colon = system: HCT-116 colon
HCT-15 colon = system: HCT-15 colon
HL-60(TB) leukemia = system: HL-60(TB) leukemia
HOP-62 NSCLC = system: HOP-62 NSCLC
HOP-92 NSCLC = system: HOP-92 NSCLC
HS 578T breast = system: HS 578T breast
HT29 colon = system: HT29 colon
IGROV1 ovarian = system: IGROV1 ovarian
K-562 leukemia = system: K-562 leukemia
KM12 colon = system: KM12 colon
LOX IMVI melanoma = system: LOX IMVI melanoma
M14 melanoma = system: M14 melanoma
MALME-3M melanoma = system: MALME-3M melanoma
MCF7 breast = system: MCF7 breast
MDA-MB-231 breast = system: MDA-MB-231 breast
MDA-MB-435 = system: MDA-MB-435
MOLT-4 leukemia = system: MOLT-4 leukemia
NCI-H226 lung = system: NCI-H226 lung
NCI-H23 lung = system: NCI-H23 lung
NCI-H460 lung = system: NCI-H460 lung
NCI-H522 lung = system: NCI-H522 lung
NCI/ADR-RES ovarian = system: NCI/ADR-RES ovarian
OVCAR-3 ovarian = system: OVCAR-3 ovarian
OVCAR-4 ovarian = system: OVCAR-4 ovarian
OVCAR-5 ovarian = system: OVCAR-5 ovarian
OVCAR-8 ovarian = system: OVCAR-8 ovarian
PC-3 prostate = system: PC-3 prostate
RPMI-8226 leukemia = system: RPMI-8226 leukemia
RXF 393 renal = system: RXF 393 renal
SF-268 CNS = system: SF-268 CNS
SF-295 CNS = system: SF-295 CNS
SF-539 CNS = system: SF-539 CNS
SK-MEL-2 melanoma = system: SK-MEL-2 melanoma
SK-MEL-28 melanoma = system: SK-MEL-28 melanoma
SK-MEL-5 melanoma = system: SK-MEL-5 melanoma
SK-OV-3 ovarian = system: SK-OV-3 ovarian
SN12C renal = system: SN12C renal
SNB-19 CNS = system: SNB-19 CNS
SNB-75 CNS = system: SNB-75 CNS
SR leukemia = system: SR leukemia
SW-620 colon = system: SW-620 colon
T-47D breast = system: T-47D breast
TK-10 renal = system: TK-10 renal
U251 CNS = system: U251 CNS
UACC-257 melanoma = system: UACC-257 melanoma
UACC-62 melanoma = system: UACC-62 melanoma
UO-31 renal = system: UO-31 renal
A498 renal = system: A498 renal

## CN1CCN(CCCOC(=O)c2c3c(n4ccccc24)C(=O)c2ncccc2C3=O)CC1
786-0 renal
  GI50: < 10 nM
  TGI: 40.7 nM
A549 NSCLC
  GI50: < 10 nM
  TGI: 59.3 nM
ACHN renal
  GI50: < 10 nM
  TGI: 15.4 nM
BT-549 breast
  GI50: 426 nM
  TGI: 16300 nM
CAKI-1 renal
  GI50: < 10 nM
  TGI: 366 nM
CCRF-CEM leukemia
  GI50: 41 nM
  TGI: > 30400 nM
COLO 205 colon
  GI50: < 33.2 nM
  TGI: 1170 nM
DU-145 prostate
  GI50: < 10 nM
  TGI: 1300 nM
EKVX NSCLC
  GI50: 45.6 nM
  TGI: 12600 nM
HCC-2998 colon
  GI50: < 13.5 nM
  TGI: 1980 nM
HCT-116 colon
  GI50: < 10 nM
  TGI: 2910 nM
HCT-15 colon
  GI50: < 14.3 nM
  TGI: 1520 nM
HL-60(TB) leukemia
  GI50: 68.4 nM
  TGI: 14600 nM
HOP-62 NSCLC
  GI50: < 10 nM
  TGI: 39.3 nM
HOP-92 NSCLC
  GI50: 254 nM
  TGI: 16800 nM
HS 578T breast
  GI50: < 26.8 nM
  TGI: 1150 nM
HT29 colon
  GI50: 164 nM
  TGI: 2180 nM
IGROV1 ovarian
  GI50: < 19.4 nM
  TGI: 4710 nM
K-562 leukemia
  GI50: < 11.3 nM
KM12 colon
  GI50: 66.9 nM
  TGI: 13800 nM
LOX IMVI melanoma
  GI50: < 10 nM
  TGI: 33.4 nM
M14 melanoma
  GI50: < 14.9 nM
  TGI: 253 nM
MALME-3M melanoma
  GI50: 26.5 nM
  TGI: 1140 nM
MCF7 breast
  GI50: < 10 nM
  TGI: 17.8 nM
MDA-MB-231 breast
  GI50: 2530 nM
  TGI: 37200 nM
MDA-MB-435
  GI50: 14.2 nM
  TGI: 162 nM
MOLT-4 leukemia
  GI50: 60.4 nM
  TGI: 23400 nM
NCI-H226 lung
  GI50: 17.8 nM
  TGI: 1080 nM
NCI-H23 lung
  GI50: < 10 nM
  TGI: < 17.2 nM
NCI-H460 lung
  GI50: < 10 nM
  TGI: < 11.8 nM
NCI-H522 lung
  GI50: < 10 nM
  TGI: < 16.4 nM
NCI/ADR-RES ovarian
  GI50: < 10.7 nM
  TGI: 12900 nM
OVCAR-3 ovarian
  GI50: 40.3 nM
  TGI: 4950 nM
OVCAR-4 ovarian
  GI50: 537 nM
  TGI: 3780 nM
OVCAR-5 ovarian
  GI50: 357 nM
  TGI: 3650 nM
OVCAR-8 ovarian
  GI50: < 11 nM
  TGI: 11900 nM
PC-3 prostate
  GI50: < 23.2 nM
  TGI: 16700 nM
RPMI-8226 leukemia
  GI50: 65.3 nM
RXF 393 renal
  GI50: < 11.8 nM
  TGI: 30.3 nM
SF-268 CNS
  GI50: < 10 nM
  TGI: 10300 nM
SF-295 CNS
  GI50: < 11.7 nM
  TGI: 199 nM
SF-539 CNS
  GI50: < 15.4 nM
  TGI: 103 nM
SK-MEL-2 melanoma
  GI50: 31.3 nM
  TGI: 274 nM
SK-MEL-28 melanoma
  GI50: 80 nM
  TGI: 4250 nM
SK-MEL-5 melanoma
  GI50: 26.9 nM
  TGI: 592 nM
SK-OV-3 ovarian
  GI50: < 10 nM
  TGI: 27.8 nM
SN12C renal
  GI50: < 10 nM
  TGI: 294 nM
SNB-19 CNS
  GI50: < 10 nM
  TGI: 1450 nM
SNB-75 CNS
  GI50: < 14.2 nM
  TGI: 105 nM
SR leukemia
  GI50: < 10 nM
  TGI: > 100000 nM
SW-620 colon
  GI50: < 10 nM
  TGI: 38.5 nM
T-47D breast
  GI50: 1890 nM
  TGI: 29600 nM
TK-10 renal
  GI50: 113 nM
  TGI: 21600 nM
U251 CNS
  GI50: < 10 nM
  TGI: 76.8 nM
UACC-257 melanoma
  GI50: 21.9 nM
  TGI: 1300 nM
UACC-62 melanoma
  GI50: < 10 nM
  TGI: 32.4 nM
UO-31 renal
  GI50: < 10 nM

## [Cu].c1ccc2c(c1)C1=NC2=NC2=NC(=NC3=NC(=NC4=NC(=N1)c1ccccc14)c1ccccc13)c1ccccc12
786-0 renal
  GI50: > 100000 nM
  TGI: > 100000 nM
A498 renal
  GI50: > 100000 nM
  TGI: > 100000 nM
A549 NSCLC
  GI50: > 100000 nM
  TGI: > 100000 nM
ACHN renal
  GI50: > 100000 nM
  TGI: > 100000 nM
BT-549 breast
  GI50: > 100000 nM
  TGI: > 100000 nM
CAKI-1 renal
  GI50: > 100000 nM
  TGI: > 100000 nM
DU-145 prostate
  GI50: > 100000 nM
  TGI: > 100000 nM
EKVX NSCLC
  GI50: > 100000 nM
  TGI: > 100000 nM
HCC-2998 colon
  GI50: > 100000 nM
  TGI: > 100000 nM
HCT-116 colon
  GI50: > 100000 nM
  TGI: > 100000 nM
HCT-15 colon
  GI50: > 100000 nM
  TGI: > 100000 nM
HOP-62 NSCLC
  GI50: > 100000 nM
  TGI: > 100000 nM
HOP-92 NSCLC
  GI50: > 100000 nM
  TGI: > 100000 nM
HS 578T breast
  GI50: > 100000 nM
  TGI: > 100000 nM
HT29 colon
  GI50: > 100000 nM
  TGI: > 100000 nM
IGROV1 ovarian
  GI50: > 100000 nM
  TGI: > 100000 nM
K-562 leukemia
  GI50: > 100000 nM
  TGI: > 100000 nM
KM12 colon
  GI50: > 100000 nM
  TGI: > 100000 nM
LOX IMVI melanoma
  GI50: > 100000 nM
  TGI: > 100000 nM
M14 melanoma
  GI50: > 100000 nM
  TGI: > 100000 nM
MALME-3M melanoma
  GI50: > 100000 nM
  TGI: > 100000 nM
MCF7 breast
  GI50: > 100000 nM
  TGI: > 100000 nM
MDA-MB-231 breast
  GI50: > 100000 nM
  TGI: > 100000 nM
MDA-MB-435
  GI50: > 100000 nM
  TGI: > 100000 nM
NCI-H23 lung
  GI50: > 100000 nM
  TGI: > 100000 nM
NCI-H460 lung
  GI50: > 100000 nM
  TGI: > 100000 nM
NCI-H522 lung
  GI50: > 100000 nM
  TGI: > 100000 nM
NCI/ADR-RES ovarian
  GI50: > 100000 nM
  TGI: > 100000 nM
OVCAR-3 ovarian
  GI50: > 100000 nM
  TGI: > 100000 nM
OVCAR-4 ovarian
  GI50: > 100000 nM
  TGI: > 100000 nM
OVCAR-5 ovarian
  GI50: > 100000 nM
  TGI: > 100000 nM
OVCAR-8 ovarian
  GI50: > 100000 nM
  TGI: > 100000 nM
PC-3 prostate
  GI50: > 100000 nM
  TGI: > 100000 nM
RPMI-8226 leukemia
  GI50: > 100000 nM
  TGI: > 100000 nM
RXF 393 renal
  GI50: > 100000 nM
  TGI: > 100000 nM
SF-268 CNS
  GI50: > 100000 nM
  TGI: > 100000 nM
SF-295 CNS
  GI50: > 100000 nM
  TGI: > 100000 nM
SK-MEL-2 melanoma
  GI50: > 100000 nM
  TGI: > 100000 nM
SK-MEL-28 melanoma
  GI50: > 100000 nM
  TGI: > 100000 nM
SK-MEL-5 melanoma
  GI50: > 100000 nM
  TGI: > 100000 nM
SK-OV-3 ovarian
  GI50: > 100000 nM
  TGI: > 100000 nM
SN12C renal
  GI50: > 100000 nM
  TGI: > 100000 nM
SNB-19 CNS
  GI50: > 100000 nM
  TGI: > 100000 nM
SNB-75 CNS
  GI50: > 100000 nM
  TGI: > 100000 nM
SW-620 colon
  GI50: > 100000 nM
  TGI: > 100000 nM
T-47D breast
  GI50: > 100000 nM
  TGI: > 100000 nM
TK-10 renal
  GI50: > 100000 nM
  TGI: > 100000 nM
U251 CNS
  GI50: > 100000 nM
  TGI: > 100000 nM
UACC-257 melanoma
  GI50: > 100000 nM
  TGI: > 100000 nM
UACC-62 melanoma
  GI50: > 100000 nM
  TGI: > 100000 nM
UO-31 renal
  GI50: > 100000 nM
  TGI: > 100000 nM
